Here are results for seven molecules from patent publication US20260256925A1, “INDAZOLE DERIVATIVES AS ESTROGEN RECEPTOR DEGRADERS” (REGENTS OF THE UNIVERSITY OF MICHIGAN, priority 2022, published 2026).

Some results are limits rather than exact numbers.

For orientation: DC50 means the concentration giving 50% degradation. The Dmax is the largest share of the target that was removed. As a reminder, the IC50 is the concentration that gives 50% inhibition.

The target of assay [1] is T1, ER (Homo sapiens, UniProt P03372).
T1 construct: endogenous in cells; probably T47D or MCF-7
T1 sequence (P03372 1-595): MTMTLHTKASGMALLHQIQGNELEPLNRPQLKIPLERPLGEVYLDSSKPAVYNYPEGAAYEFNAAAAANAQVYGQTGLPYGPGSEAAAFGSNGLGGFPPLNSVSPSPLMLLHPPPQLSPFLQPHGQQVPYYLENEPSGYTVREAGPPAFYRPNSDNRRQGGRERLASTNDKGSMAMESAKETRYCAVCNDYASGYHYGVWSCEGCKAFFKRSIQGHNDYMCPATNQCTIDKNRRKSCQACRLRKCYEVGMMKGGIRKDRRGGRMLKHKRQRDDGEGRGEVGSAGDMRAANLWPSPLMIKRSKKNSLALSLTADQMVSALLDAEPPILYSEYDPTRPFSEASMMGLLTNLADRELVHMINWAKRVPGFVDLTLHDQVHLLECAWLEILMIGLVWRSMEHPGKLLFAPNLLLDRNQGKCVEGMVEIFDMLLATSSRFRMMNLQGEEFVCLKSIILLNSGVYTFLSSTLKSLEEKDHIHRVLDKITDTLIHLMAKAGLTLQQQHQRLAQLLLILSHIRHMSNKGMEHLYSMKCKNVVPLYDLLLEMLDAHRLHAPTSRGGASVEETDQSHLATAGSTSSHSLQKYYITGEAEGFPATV
In words: In-cell Western (ICW) ER degradation assay in T47D cells. It is filed as cell-based. Conditions: for Dmax: T47D, read-out: ER T47D ICW Dmax (%).

Another assay concerns T47D cells. In words: CellTiter-Glo (CTG) cell proliferation assay in T47D cells. It is filed as cell-based. The settings on record: Homo sapiens, 144 h, Day 6. An excerpt: (§1) CellTiter-Glo® (CTG) assays in MCF-7 and T47D cell lines.
(§2) In vitro Assay: MCF-7 and T47D CTG assay
A general note: ATP-based viability assays read luminescence as a measure of living cells.

The target of assay [2] is T1, ER. In words: In-cell Western (ICW) ER degradation assay in MCF-7 cells. In kind it is cell-based. Conditions: for DC50: read-out: ER MCF7 ICW DC50.
In another assay the test system is MCF-7 cells. In words: CellTiter-Glo (CTG) cell proliferation assay in MCF-7 cells. It is filed as cell-based. The settings on record: Homo sapiens, MCF7, 144 h, Day 6.
Text: as §1, §2

The target in a further assay is T2, ERα_LBD (GST) (Homo sapiens, UniProt P03372).
T2 construct: ERα_LBD (GST) protein: 4 nM; purchased ThermoFisher A15887
T2 sequence (P03372 311-547 limits assumed): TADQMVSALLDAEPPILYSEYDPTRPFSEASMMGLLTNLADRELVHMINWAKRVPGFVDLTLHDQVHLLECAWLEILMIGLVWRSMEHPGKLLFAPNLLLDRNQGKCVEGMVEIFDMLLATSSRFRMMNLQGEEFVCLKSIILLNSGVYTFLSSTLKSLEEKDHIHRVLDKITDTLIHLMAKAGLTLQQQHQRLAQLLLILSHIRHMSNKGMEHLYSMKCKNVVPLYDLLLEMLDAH
In words: IC50 measurements for binding to ERα_LBD (GST), LanthaScreen TR-FRET ERα competitive binding assay. The settings on record: Fluormone ES2 Green tracer, 60 min, read-out: ERα HTRF IC50. The protocol:
In vitro Assay: IC50 Measurements for binding to ERα_LBD (GST)·
Final assay conditions: • 1. ERα_LBD (GST) protein: 4 nM • 2. Tb Anti-GST: 2 nM • 3. Fluormone ES2 Green tracer: 3 nM • 4. Incubation time: 60 min • 5. DMSO: 1% • 6. Assay buffer: Adding 1M DTT to Nuclear receptor Buffer K for final 5 mM DTT. • 7. ZPE: 1% DMSO • 8. HPE: 1 μM ARV_471 • 9. LanthaScreen® TR-FRET ERα Competitive Binding Assay (ThermoFisher, #A^15887)
100× Compound preparation: • 1) Cherry pick 2 μL 10 mM compound stock to column 1 of a 384 intermediate plate • 2) Add 18 μL DMSO to column 1 to dilute compound to 1 mM. • 3) Transfer 10 μL 1 mM compound to column 1 of a LDV plate. • 2) Add 6 μl DMSO to column 2-10 of the LDV plate. • 3) Compounds undergo 3-fold serial dilution (3 μL+6 μL) in DMSO. • 4) Transfer 120 nL compound solution to assay plate.
Prepare complete nuclear receptor buffer K by adding 1 M DTT to nuclear receptor buffer K for a final concentration of 5 mM DTT. Complete nuclear receptor buffer K must be prepared fresh daily. Prepare 2× protein solution using complete nuclear receptor buffer K containing 8 nM ERα_LBD (GST) and 4 nM Tb Anti-GST. Then, prepare 2× Fluormone ES2 Green tracer (6 nM) using complete nuclear receptor buffer K. Add 6 μL 2× Fluormone ES2 green tracer into a compound plate (PerkinElmer 6008289) by dragonfly with one-tips-addition. Subsequently, add 6 μL 2× protein solution into the plate. Briefly and gently mix the 384-well plate on a plate shaker and incubate at room temperature protected from light for 60 min. The plate is sealed with a cover to minimize evaporation. Read the plate at wavelengths of 520 nm and 495 nm. Calculate the TR-FRET ratio by dividing the emission signal at 520 nm by the emission signal at 495 nm. Generate a binding curve by plotting the emission ratio vs. the log [ligand]. To determine the IC50 value, fit the data using XL-fit for a sigmoidal dose-response.
(Time-resolved FRET reads energy transfer from a long-lived donor to a nearby acceptor.)

The target in a further assay is T3, CRBN/DDB1 (Homo sapiens, UniProt Q96SW2).
T3 construct: purchased Wuxi RP210521GA
T3 sequence (Q96SW2 whole entry): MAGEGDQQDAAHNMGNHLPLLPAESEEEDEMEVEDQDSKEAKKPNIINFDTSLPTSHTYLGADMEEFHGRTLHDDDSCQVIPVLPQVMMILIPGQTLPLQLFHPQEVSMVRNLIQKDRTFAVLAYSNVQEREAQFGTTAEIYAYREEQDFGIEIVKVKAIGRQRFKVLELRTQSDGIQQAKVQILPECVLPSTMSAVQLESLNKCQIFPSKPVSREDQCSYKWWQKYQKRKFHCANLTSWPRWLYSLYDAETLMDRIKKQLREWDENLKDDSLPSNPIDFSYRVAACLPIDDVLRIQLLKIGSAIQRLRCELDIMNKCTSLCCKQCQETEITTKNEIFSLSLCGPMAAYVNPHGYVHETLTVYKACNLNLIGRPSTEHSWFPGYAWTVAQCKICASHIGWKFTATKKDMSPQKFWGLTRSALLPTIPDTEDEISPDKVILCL
T3 sequence (Q16531 whole entry partner): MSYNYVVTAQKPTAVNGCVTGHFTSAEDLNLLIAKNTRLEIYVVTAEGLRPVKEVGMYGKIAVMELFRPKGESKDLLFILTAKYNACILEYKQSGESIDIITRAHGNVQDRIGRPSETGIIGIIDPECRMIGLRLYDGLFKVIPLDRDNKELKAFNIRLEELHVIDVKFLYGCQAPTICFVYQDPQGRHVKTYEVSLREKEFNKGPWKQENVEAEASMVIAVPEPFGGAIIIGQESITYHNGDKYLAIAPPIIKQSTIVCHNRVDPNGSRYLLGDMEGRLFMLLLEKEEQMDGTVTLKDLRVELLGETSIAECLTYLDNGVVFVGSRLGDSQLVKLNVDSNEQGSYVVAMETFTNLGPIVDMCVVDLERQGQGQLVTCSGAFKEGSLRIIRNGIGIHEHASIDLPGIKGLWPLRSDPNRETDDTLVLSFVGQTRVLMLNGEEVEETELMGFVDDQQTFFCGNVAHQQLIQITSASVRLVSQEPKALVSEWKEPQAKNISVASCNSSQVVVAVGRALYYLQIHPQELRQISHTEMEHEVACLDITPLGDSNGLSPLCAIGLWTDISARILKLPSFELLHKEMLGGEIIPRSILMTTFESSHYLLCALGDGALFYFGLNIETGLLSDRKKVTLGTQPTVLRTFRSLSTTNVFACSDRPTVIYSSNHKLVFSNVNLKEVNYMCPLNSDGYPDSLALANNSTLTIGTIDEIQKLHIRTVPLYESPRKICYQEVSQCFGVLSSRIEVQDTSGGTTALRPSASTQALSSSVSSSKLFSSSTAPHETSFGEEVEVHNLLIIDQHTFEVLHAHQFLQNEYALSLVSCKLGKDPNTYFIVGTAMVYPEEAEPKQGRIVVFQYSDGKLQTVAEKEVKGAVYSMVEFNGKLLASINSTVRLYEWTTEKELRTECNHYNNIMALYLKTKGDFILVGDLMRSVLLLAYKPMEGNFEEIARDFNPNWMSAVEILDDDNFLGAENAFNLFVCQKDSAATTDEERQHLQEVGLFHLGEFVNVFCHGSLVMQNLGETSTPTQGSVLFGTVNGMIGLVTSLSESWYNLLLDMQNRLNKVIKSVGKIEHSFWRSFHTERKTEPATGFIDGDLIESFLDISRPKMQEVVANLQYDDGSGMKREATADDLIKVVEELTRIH
In kind it is binding. The settings on record: HTRF, Cy5-labeled Thalidomide probe. The protocol: The binding potency was determined using HTRF assay technology (Perkin Elmer). Compounds were serially diluted in DMSO and 0.2 μL volume was transferred to white 384-well plate.

[3] abbreviates: MCF7, read-out: ER MCF7 ICW Dmax (%).
Where [4] appears, read: MCF7, MCF-7 cells, 16 hrs, read-out: ER MCF7 ICW Dmax (%).

`C[C@@H]1Cc2c(ccc3[nH]ncc23)C(c2ccc(N3CCC4(CC3)CC(CN3CCN5c6ccc7c(c6OC[C@H]5C3)CN([C@H]3CCC(=O)NC3=O)C7=O)C4)nc2)N1CC(F)(F)F` (stereo in doubt) [Compound A26, (S)-3-((R)-7-((7-(5-((6R,8R)-8-methyl-7-(2,2,2-trifluoroethyl)-6,7,8,9-tetrahydro-3H-pyrazolo[4,3-f]isoquinolin-6-yl)pyridin-2-yl)-7-azaspiro[3.5]nonan-2-yl)methyl)-1-oxo-1,3,5,5a,6,7,8,9-octahydro-2H-pyrazino[1′,2′: 4,5][1,4]oxazino[2,3-e]isoindol-2-yl)piperidine-2,6-dione]: the DC50 on ER [1] (T47D cells, 16 hrs) is under 1 nM; at ER [2] (MCF-7 cells, 16 hrs) it was under 1 nM. The Dmax at ER [1] (T47D cells, 16 hrs) is over 75%; at ER [2] (setting [3]), over 75%. Further, the 50% inhibitory concentration (IC50) with T47D cells was 10 to 50 nM; in the assay on MCF-7 cells, 10 to 50 nM; at ERα_LBD (GST) it was under 10 nM.
As for `C[C@@H]1Cc2c(ccc3[nH]ncc23)[C@@H](c2ccc(N3CCC4(CC3)CC(CN3CCN5c6ccc7c(c6OC[C@H]5C3)CN([C@H]3CCC(=O)NC3=O)C7=O)C4)cn2)N1CC1(F)CC1` [Compound A4, (S)-3-((R)-7-((7-(6-((6S,8R)-7-((1-fluorocyclopropyl)methyl)-8-methyl-6,7,8,9-tetrahydro-3H-pyrazolo[4,3-f]isoquinolin-6-yl)pyridin-3-yl)-7-azaspiro[3.5]nonan-2-yl)methyl)-1-oxo-1,3,5,5a,6,7,8,9-octahydro-2H-pyrazino[1′,2′:4,5][1,4]oxazino[2,3-e]isoindol-2-yl)piperidine-2,6-dione], the DC50 was under 1 nM at ER [1] (T47D cells, 16 hrs) and under 1 nM on ER [2] (MCF-7 cells, 16 hrs). The maximal degradation (Dmax) at ER [1] (T47D cells, 16 hrs) was over 75%; at ER [2] (setting [4]) it was 50 to 75%. The half-inhibitory concentration (IC50) is under 50 nM at CRBN/DDB1 and under 10 nM at ERα_LBD (GST).
With `C[C@@H]1Cc2c(ccc3[nH]ncc23)[C@@H](c2ccc(N3CCC4(CC3)CC(CN3CCC5(CC3)COc3cc6c(cc35)CN([C@H]3CCC(=O)NC3=O)C6=O)C4)cn2)N1CC1(F)CC1` [Compound A5, (S)-3-(1′-((7-(6-((6S,8R)-7-((1-fluorocyclopropyl)methyl)-8-methyl-6,7,8,9-tetrahydro-3H-pyrazolo[4,3-f]isoquinolin-6-yl)pyridin-3-yl)-7-azaspiro[3.5]nonan-2-yl)methyl)-7-oxo-5,7-dihydro-2H,6H-spiro[furo[2,3-f]isoindole-3,4′-piperidin]-6-yl)piperidine-2,6-dione], the 50% degradation concentration (DC50) was under 1 nM at ER [1] (T47D cells, 16 hrs) and under 1 nM at ER [2] (MCF-7 cells, 16 hrs). For the same molecule, the maximal degradation (Dmax) on ER [1] and on ER [2] (setting [3]) was 50 to 75% in each case. Moreover, the half-inhibitory concentration (IC50) against CRBN/DDB1 was 50 to 500 nM; at ERα_LBD (GST) it was under 10 nM.
`COc1cc(N2CCC(CN3CCN4c5ccc6c(c5OC[C@H]4C3)CN(C3CCC(=O)NC3=O)C6=O)CC2)ccc1[C@@H]1c2ccc3[nH]ncc3c2C[C@@H](C)N1CC(F)F` (stereo partly drawn) [Compound A6, 3-((R)-7-((1-(4-((6S,8R)-7-(2,2-difluoroethyl)-8-methyl-6,7,8,9-tetrahydro-3H-pyrazolo[4,3-f]isoquinolin-6-yl)-3-methoxyphenyl)piperidin-4-yl)methyl)-1-oxo-1,3,5,5a,6,7,8,9-octahydro-2H-pyrazino[1′,2′:4,5][1,4]oxazino[2,3-e]isoindol-2-yl)piperidine-2,6-dione]: the 50% degradation concentration (DC50) at ER [1] (T47D cells, 16 hrs) was under 1 nM; at ER [2] (MCF-7 cells, 16 hrs), under 1 nM. The “ER T47D ICW Dmax (%)” value at ER [1] (T47D cells, 16 hrs) is “B (“B”: >50% and <75%)”. For the same molecule, the concentration for half-maximal inhibition (IC50) on CRBN/DDB1 is 50 to 500 nM; in the assay with T47D cells, under 10 nM; with MCF-7 cells, under 10 nM. For the same molecule, the “ER MCF7 ICW Dmax (%)” value at ER [2] (MCF-7 cells, 16 hrs) is “B (“B”: >50% and <75%)”.
For `C[C@@H]1Cc2c(ccc3[nH]ncc23)[C@@H](c2ccc(N3CC4(CCC(CN5CCN6c7ccc8c(c7OC[C@H]6C5)CN([C@H]5CCC(=O)NC5=O)C8=O)CC4)C3)nc2)N1CC(F)(F)F` [Compound A17, (S)-3-((R)-7-((2-(5-((6S,8R)-8-methyl-7-(2,2,2-trifluoroethyl)-6,7,8,9-tetrahydro-3H-pyrazolo[4,3-f]isoquinolin-6-yl)pyridin-2-yl)-2-azaspiro[3.5]nonan-7-yl)methyl)-1-oxo-1,3,5,5a,6,7,8,9-octahydro-2H-pyrazino[1′,2′: 4,5][1,4]oxazino[2,3-e]isoindol-2-yl)piperidine-2,6-dione], the DC50 is under 1 nM at ER [1] (T47D cells, 16 hrs) and under 1 nM on ER [2] (MCF-7 cells, 16 hrs). The Dmax on ER [1] (T47D cells, 16 hrs) is over 75%; at ER [2] (setting [3]), over 75%. The IC50 in the assay with T47D cells was 10 to 50 nM; in the assay on MCF-7 cells, over 50 nM; at ERα_LBD (GST) it was under 10 nM.
Turning to `C[C@@H]1Cc2c(ccc3[nH]ncc23)[C@H](c2ccc(N3CCC(CN4CCN5c6ccc7c(c6OC[C@H]5C4)CN([C@H]4CCC(=O)NC4=O)C7=O)CC3)nc2)N1CC(F)(F)F` [Compound A19, (S)-3-((R)-7-((1-(5-((6R,8R)-8-methyl-7-(2,2,2-trifluoroethyl)-6,7,8,9-tetrahydro-3H-pyrazolo[4,3-f]isoquinolin-6-yl)pyridin-2-yl)piperidin-4-yl)methyl)-1-oxo-1,3,5,5a,6,7,8,9-octahydro-2H-pyrazino[1′,2′: 4,5][1,4]oxazino[2,3-e]isoindol-2-yl)piperidine-2,6-dione], the DC50 at ER [1] (T47D cells, 16 hrs) is under 1 nM; on ER [2] (MCF-7 cells, 16 hrs), under 1 nM. Also, the Dmax on ER [1] (T47D cells, 16 hrs) was 50 to 75%; on ER [2] (setting [3]), 50 to 75%. Moreover, the IC50 in the assay with T47D cells, in the assay on MCF-7 cells and at ERα_LBD (GST) was under 10 nM in each case.
In the case of `C[C@@H]1Cc2c(ccc3[nH]ncc23)[C@@H](c2ccc(N3CCC4(CC3)CC(CN3CCN5c6ccc7c(c6OC[C@H]5C3)CN([C@H]3CCC(=O)NC3=O)C7=O)CO4)nc2)N1CC(F)(F)F` (stereo partly drawn) [Compound A22, (3S)-3-((5aR)-7-((8-(5-((6S,8R)-8-methyl-7-(2,2,2-trifluoroethyl)-6,7,8,9-tetrahydro-3H-pyrazolo[4,3-f]isoquinolin-6-yl)pyridin-2-yl)-1-oxa-8-azaspiro[4.5]decan-3-yl)methyl)-1-oxo-1,3,5,5a,6,7,8,9-octahydro-2H-pyrazino[1′,2′:4,5][1,4]oxazino[2,3-e]isoindol-2-yl)piperidine-2,6-dione], the DC50 at ER [1] (T47D cells, 16 hrs) was under 1 nM; on ER [2] (MCF-7 cells, 16 hrs), under 1 nM. Further, the Dmax lay within 50 to 75% at ER [1] (T47D cells, 16 hrs) and 50 to 75% on ER [2] (setting [4]). Besides, the IC50 is 50 to 500 nM against CRBN/DDB1 and under 10 nM at ERα_LBD (GST).
